{"source": "paper PMC8691750", "about": "“Euphorbia Factor L2 ameliorates the Progression of K/BxN Serum-Induced Arthritis by Blocking TLR7 Mediated IRAK4/IKKβ/IRF5 and NF-kB Signaling Pathways” (Frontiers in Pharmacology, 2021)", "key": {"[1]": {"tested_on": "neutrophils, macrophages and inflammatory monocytes in the blood", "experiment": "Flow cytometry of myeloid cells in peripheral blood of STA mice", "format": "in vivo, C57BL/6 mice", "conditions": "EFL2 40 mg/kg i.p.", "method": "K/BxN serum was collected from K/BxN mice at 8 weeks of age, pooled, aliquoted and stored at -20 °C. K/BxN serum-transfer arthritis (STA) model was induced by intraperitoneal (i.p.) application of 150 μL of serum at day 0. Clinical score for arthritis severity was assessed using a 0–4 point scale for each paw at various time points (0–16 total score) as described previously ([Luo et al., 2011]). 8-week old male C57BL/6 mice were purchased from Dashuo Animal Center (China, Chengdu), maintained at 25°C, and exposed to 12-h light and dark cycles. Mice were fed with standard laboratory chow and water with 1 week of acclimatization. Naive mice were used as the control group. […]\n150 μL peripheral blood and the hind ankles were collected on day 5 and 13 post KBx/N serum transfer, respectively. […] Data were acquired using a BD FACSCalibur flow cytometer (BD Biosciences) and were analyzed by using FlowJo software (Version 7.6.1)."}, "[2]": {"tested_on": "chemokine, cytokine and TLR pathway mRNA expression in the ankles", "experiment": "Quantitative RT-PCR of ankles of STA mice", "format": "in vivo, C57BL/6 mice", "method": "K/BxN serum was collected from K/BxN mice at 8 weeks of age, pooled, aliquoted and stored at -20 °C. K/BxN serum-transfer arthritis (STA) model was induced by intraperitoneal (i.p.) application of 150 μL of serum at day 0. Clinical score for arthritis severity was assessed using a 0–4 point scale for each paw at various time points (0–16 total score) as described previously ([Luo et al., 2011]). 8-week old male C57BL/6 mice were purchased from Dashuo Animal Center (China, Chengdu), maintained at 25°C, and exposed to 12-h light and dark cycles. Mice were fed with standard laboratory chow and water with 1 week of acclimatization. Naive mice were used as the control group. Except the control mice, all mice were i. p. injected with 150 μL of serum, then randomly divided into the following groups and treated with different compounds daily for the consecutive 8 days: 1) STA group; 2) Solvent control group, mice were gavaged with the solvent; 3) Dexamethasone (DEX) group, mice were gavaged with 30 mg/kg DEX; 4) EFL2 group 1, mice were gavaged with 40 mg/kg EFL2; 5) EFL2 group 2, mice were intraperitoneally injected with 15 mg/kg EFL2; 6) EFL2 group 3, […] were intraperitoneally injected with 40 mg/kg EFL2. […] All animal experiments were conducted in accordance with ethical regulation for animal care and use in China.\nFrozen right ankles were pulverized with liquid nitrogen and total RNA was extracted using Trizol reagent (Invitrogen). RNA was reverse transcribed into cDNA using an oligo d(T) primer. The obtained cDNA was applied for quantitative RT-PCR using SYBR Green I-dTTP (Eurogentec). Samples were analyzed in triplicate, and β-actin was used as endogenous controls. Data was analyzed using the 2^−ΔΔCt method and is expressed as “Fold change” (expression relative to housekeeping gene and normalized to reference sample)."}, "RAW264.7 cells": {"tested_on": "RAW264.7 cells", "experiment": "Cell viability, CCK8 assay, RAW264.7", "format": "cell-based, mouse", "conditions": "CCK8, 0.1-100 μM, 20 h", "method": "RAW264.7 cells, a mouse macrophage cell line, were cultured in DMEM medium containing 10% fetal bovine serum (FBS), 1% penicillin-streptomycin and maintained at 37 °C in 5% CO2 humidified air. Bone marrow-derived macrophages (BMDMs) generation was performed as following description. In brief, bone marrow cells were harvested from tibias and femurs of C57BL/6 mice and differentiated for 7 days in DMEM medium supplemented with 10% FBS, 1% penicillin-streptomycin and 50 ng/ml M-CSF. For human peripheral blood mononuclear cells (PBMCs) preparation, 5 ml peripheral venous blood was obtained from healthy donors in West China Hospital. PBMCs were isolated with Human Lymphocyte Separation Medium (LTS1077, Tian Jing, China) according to the manufacturer’s instructions. The experimental protocols were performed according to the approved guidelines established by the Institutional Human Research Subject Protection Committee of the Ethics Committee of West China Hospital, Sichuan University, China.\nThe effects of EFL2 on RAW264.7 cells, BMDMs and PBMCs viability were evaluated by Cell Counting Kit-8 (CCK8) assay (Dojindo, Japan). […] The optical absorbance at 450 nm was read with a Biotek Eon™ microplate reader (Biotek, Vermont, United States)."}, "[3]": {"tested_on": "lung cancer cell line A549", "design": "method as in Lin et al., 2017", "conditions": "in vitro, dose-dependent; ref Lin et al., 2017; cited from earlier work"}, "[4]": {"conditions": "STA mice day 5, EFL2 40 mg/kg i.p."}}, "data": [{"smiles": "C=C1C(OC(=O)c2ccccc2)CC2C(C=C(C)C(=O)C3(OC(C)=O)CC(C)C(OC(=O)c4ccccc4)C3C1OC(C)=O)C2(C)C", "note": "(stereo not shown) [EFL2, Euphorbia factor L2]", "values": [{"measurement": "expansions of three myeloid cells subsets in the blood", "setting": "[1]", "value": "more robust suppressive effect"}, {"measurement": "CXCL1 mRNA expression in the ankles", "setting": "[2]; [4]", "value": "remarkably down-regulated"}, {"measurement": "CXCL5 mRNA expression in the ankles", "setting": "[2]; [4]", "value": "remarkably down-regulated"}, {"measurement": "CCL3 mRNA expression in the ankles", "setting": "[2]; STA mice, EFL2 15 mg/kg i.p.", "value": "only significantly decreased"}, {"measurement": "CCL3 gene expression in the ankles", "setting": "[2]; STA mice, EFL2 40 mg/kg i.p.", "value": "significantly reduced"}, {"measurement": "mRNA expression of up-regulated TLR pathway genes (TLR7, TLR2, TLR9, Myd88, IRAK1/4, Nfkbia/ib, IRF5, Rel, Map3K7, Mapk8) in ankles", "setting": "[2]; STA mice, EFL2 40 mg/kg i.p., RT-PCR", "value": "robust inhibitory effect"}, {"measurement": "IL-1β mRNA expression in the ankles", "setting": "[2]; STA mice, EFL2 i.p. treatment", "value": "robustly inhibited"}, {"measurement": "IL-6 mRNA expression in the ankles", "setting": "[2]; STA mice, EFL2 i.p. treatment", "value": "robustly inhibited"}, {"measurement": "concentration at which significant cytotoxicity is displayed", "setting": "RAW264.7 cells", "value": "≥ 25", "unit": "µM"}, {"measurement": "apoptosis of A549 cells", "setting": "[3]", "value": "induced the apoptosis"}]}]}
